Converted amounts (≈) assume the structure as drawn. Like-named read-outs stand apart in the source and are kept apart here.
What was measured:
[1] = system: NCTC (clone 929) mouse fibroblast cells; experiment: MTT cell viability / cytotoxicity on normal fibroblasts; format: cell-based; settings: for IC50: Mus musculus, NCTC clone 929, NCTC normal fibroblasts, MTT, 48 h
Text: (§1) Merck chemicals were utilized.
(§2) Untreated cells were used as control, considered 100% viable cells.

[2] = as above; format: cell-based, mouse; settings: mouse
Text: as §1, §2

[3] = system: HEp-2 epithelial tumor cells; experiment: MTT cell viability / anti-tumor activity; settings: Homo sapiens; for viability at 3.1 µg/mL / viability at 6.25 µg/mL / viability at 12.5 µg/mL / viability at 25 µg/mL / viability at 50 µg/mL: read-out: Cell viability on Hep2 cells (%); for IC50: read-out: IC50 µg/mL on HEp-2 Cells 48 h, HEp-2 epithelial tumor cells, MTT, 48 h
Experimental: The cytotoxicity of the halogenoaminopyrazole derivatives 4a–f and 5a–e was tested on L929 mouse fibroblast cells, and their anti-tumor activity was evaluated on the human carcinoma epithelial cell line HEp-2. The experiments were performed in a concentration range of 3.1–50 μg/mL.
The MTT test was used, 3-(4,5-dimethylthiazol-2-yl)-2,5-diphenyl tetrazolium bromide), which is reduced to insoluble purple-blue formazan crystals precipitated by living cells. Cell viability assessed using the MTT assay reflects the activity of mitochondrial enzymes in treated cells compared to the control culture of untreated cells.
To assess the biocompatibility of the substances, a stable mouse fibroblast cell line, NCTC (clone 929), was grown in minimal essential medium (MEM) with 10% fetal bovine serum (FBS) and 2 mM L-glutamine, along with 100 U/mL penicillin, 100 µg/mL streptomycin, and 500 µg/mL neomycin. The concentration of the compounds used was 0.06 g/2 mL DMSO.
In cytotoxicity experiments, compound solutions were utilized at concentrations of 3.1 μg/mL, 6.25 μg/mL, 12.5 μg/mL, 25 μg/mL, and 50 μg/mL. The NCTC cell suspension was placed into 96-well culture plates with a concentration of 4 × 10^4 cells/mL and incubated at 37 °C for 24 h in a 5% CO2 humidified atmosphere. The compounds under study were placed in sets of three at varying concentrations ranging from 3.1 μg/mL to 50 μg/mL in every well, and the plates were then kept under standard conditions for 48 h. Cell viability was determined through the utilization of the MTT assay. Next, the MTT solution was removed, then isopropanol was added to solubilize the formazan crystals. The colored solution was then measured for absorbance at 570 nm using a Berthold Technologies, LB 940 microplate reader (Bad Wildbad, Germany). The outcomes were determined based on Formula (1) while considering that the recorded optical density is directly related to the number of viable cells in the cell culture being examined [35, 36]. % cell viability = (OD sample/OD control) × 100%(1)
For each tested compound, a graph representing percentage cell viability versus concentrations (in the range 3.1–50 µg/mL) was obtained. Then, the IC50 value was calculated by using ED50 plus V1.0 software.

[4] = system: Staphylococcus aureus ATCC25923; experiment: Qualitative evaluation of antimicrobial activity (inhibition zone, spot on agar); format: cell-based; design: key: (+) inhibited bacterial growth; (-) did not inhibit bacterial growth; settings: 0.06 g/2 mL DMSO, 5 µL spot
Experimental: (§3) For testing the antimicrobial/antibiofilm activity, the concentration of the studied compounds was identical to 0.06 g/2 mL DMSO. 0.5 Standard McFarland suspension was used, which was inoculated onto Mueller Hinton agar plates, (Remel, Lenexa, KS, USA), 5 µL of each compound was spotted and incubated overnight at 37 °C. Antimicrobial activity was observed as zones of inhibition formed around the spot.

[5] = system: Escherichia coli ATCC25922; experiment: as above; format: cell-based; design: key: (+) inhibited bacterial growth; (-) did not inhibit bacterial growth; settings: 0.06 g/2 mL DMSO, 5 µL spot
Experimental: as §3

[6] = system: Enterococcus faecalis ATCC29212; experiment: as above; format: cell-based; design: key: (+) inhibited bacterial growth; (-) did not inhibit bacterial growth; settings: 0.06 g/2 mL DMSO, 5 µL spot
Experimental: as §3

[7] = system: Pseudomonas aeruginosa ATCC27853; experiment: as above; format: cell-based; design: key: (+) inhibited bacterial growth; (-) did not inhibit bacterial growth; settings: 0.06 g/2 mL DMSO, 5 µL spot
Experimental: as §3

[8] = system: Staphylococcus aureus ATCC25923; experiment: Antibiofilm assay (crystal violet), MBIC; format: cell-based; settings: 24 h, 37 °C; for minimal effective concentration: Staphylococcus aureus, ATCC25923, read-out: Minimum biofilm inhibition concentration (MBIC), Staphylococcus aureus ATCC25923
Summary of the method: (§4)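 Biofilms grown in nutrient broth with test substances for 24 h at 37 °C. After rinsing with sterile physiological water, attached cells were fixed 5 min with methanol, then crystal violet stained.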

[9] = system: Escherichia coli ATCC25922; experiment: Antibiofilm assay (crystal violet), MBIC; format: cell-based; settings: 37 °C; for minimal effective concentration: Escherichia coli, ATCC25922, 24 h, read-out: Minimum biofilm inhibition concentration (MBIC), Escherichia coli ATCC25922
Summary of the method: as §4

[10] = system: Enterococcus faecalis ATCC29212; experiment: Antibiofilm assay (crystal violet), MBIC; format: cell-based; settings: Enterococcus faecalis, ATCC29212, 24 h, 37 °C, read-out: Minimum biofilm inhibition concentration (MBIC), Enterococcus faecalis ATCC29212
Summary of the method: as §4

[11] = system: Pseudomonas aeruginosa ATCC27853; experiment: Antibiofilm assay (crystal violet), MBIC; format: cell-based; settings: 37 °C; for minimal effective concentration: Pseudomonas aeruginosa, ATCC27853, 24 h, read-out: Minimum biofilm inhibition concentration (MBIC), Pseudomonas aeruginosa ATCC27853
Summary of the method: as §4

[12] = system: Staphylococcus aureus ATCC25923; experiment: MIC by serial microdilution in liquid medium; format: cell-based; settings: 24 h, 37 °C; for MIC: Staphylococcus aureus, ATCC25923, read-out: Minimum inhibitory concentration, Staphylococcus aureus ATCC25923
Summary of the method: (§5)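 Twofold serial dilutions from a DMSO stock (10 mg/mL) in Tryptone Soy Broth, inoculated with 10 µL of a 10^6 CFU/mL suspension, incubated 24 h at 37 °C. Growth judged visually and by OD 620 nm; MIC (µg/mL) is the lowest concentration without growth, run in triplicate.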

[13] = system: Escherichia coli ATCC25922; experiment: MIC by serial microdilution in liquid medium; format: cell-based; settings: 24 h, 37 °C; for MIC: Escherichia coli, ATCC25922, read-out: Minimum inhibitory concentration, Escherichia coli ATCC25922
Summary of the method: as §5

[14] = system: Enterococcus faecalis ATCC29212; experiment: MIC by serial microdilution in liquid medium; format: cell-based; settings: Enterococcus faecalis, ATCC29212; 24 h, 37 °C; read-out: Minimum inhibitory concentration, Enterococcus faecalis ATCC29212
Summary of the method: as §5

[15] = system: Pseudomonas aeruginosa ATCC27853; experiment: MIC by serial microdilution in liquid medium; format: cell-based; settings: Pseudomonas aeruginosa, ATCC27853; 24 h, 37 °C; read-out: Minimum inhibitory concentration, Pseudomonas aeruginosa ATCC27853
Summary of the method: as §5

[16] = NCTC clone 929 (L929) mouse fibroblast cells
[17] = read-out: Cell viability on NCTC cells (%)

Row | SMILES | IC50 [1] [µg/mL] | viability at 3.1 µg/mL ([3]; HEp-2, 24 h) [%] | viability at 6.25 µg/mL ([3]; HEp-2, 24 h) [%] | viability at 12.5 µg/mL ([3]; HEp-2, 24 h) [%] | viability at 25 µg/mL ([3]; HEp-2, 24 h) [%] | viability at 50 µg/mL ([3]; HEp-2, 24 h) [%] | viability at 3.1 µg/mL ([3]; HEp-2, 48 h) [%] | viability at 6.25 µg/mL ([3]; HEp-2, 48 h) [%] | viability at 12.5 µg/mL ([3]; HEp-2, 48 h) [%] | viability at 25 µg/mL ([3]; HEp-2, 48 h) [%] | viability at 50 µg/mL ([3]; HEp-2, 48 h) [%] | IC50 ([3]; HEp-2, 48 h) [µg/mL] | melting point [°C] | Qualitative antimicrobial activity, Staphylococcus aureus ATCC25923 [4] | Qualitative antimicrobial activity, Escherichia coli ATCC25922 [5] | Qualitative antimicrobial activity, Enterococcus faecalis ATCC29212 [6] | Qualitative antimicrobial activity, Pseudomonas aeruginosa ATCC27853 [7] | minimal effective concentration [8] [µg/mL] | minimal effective concentration [9] [µg/mL] | minimal effective concentration [10] [µg/mL] | also measured
1 | Cc1nn(CNc2ccc(F)cc2)c(C)c1[N+](=O)[O-] [4a, N-[(3,5-dimetyl-4-nitro-1H-pyrazol-1-yl)-methyl]-4-fluoroaniline] | 46.4 ± 1.33 (≈ 176 µM) | 99.1 ± 3.42 | 94.4 ± 1.19 | 93.38 ± 0.92 | 91.3 ± 3.73 | 73.2 ± 2.71 | 93.05 ± 0.78 | 89 ± 1.5 | 83.8 ± 2.3 | 72.3 ± 1.99 | 36.4 ± 1.45 | 40.2 ± 1.26 (≈ 152 µM) | 117 to 119 | + | + | - | + | 230 | 930 ± 0.05 | 930 ± 0.27 | Cell viability on NCTC cells (%) ([1]; 6.25 µg/mL, 48h): 109.13±3.80%; viability at 24 h, 3.1 µg/mL [2, 16]: 99.6 ± 1.38%; viability at 24 h, 6.25 µg/mL [2, 16]: 99.3 ± 2.2%; viability at 48 h, 6.25 µg/mL [2, 16]: 111%; viability at 24 h, 12.5 µg/mL [2, 16]: 99 ± 2.51%; viability at 48 h, 12.5 µg/mL [2, 16]: 101 ± 1.48%; viability at 24 h, 25 µg/mL [2, 16]: 90.2 ± 1.71%; viability at 48 h, 25 µg/mL [2, 16]: 73.5 ± 2.96%; viability at 24 h, 50 µg/mL [2, 16]: 62.7 ± 1.88%; viability at 48 h, 50 µg/mL [2, 16]: 47.5 ± 1.31%; Minimum biofilm inhibition concentration (MBIC), Staphylococcus aureus ATCC25923 [8]: 230 ± 0.11 µg/mL; minimal effective concentration [11]: 930 ± 0.28 µg/mL; Minimum inhibitory concentration, Staphylococcus aureus ATCC25923 [12]: 230 ± 0.13 µg/mL (≈ 870 µM); MIC [12]: 230 µg/mL (≈ 870 µM); MIC [13]: 930 ± 0.14 µg/mL (≈ 3520 µM); MIC [14]: 930 ± 0.25 µg/mL (≈ 3520 µM); MIC [15]: 930 ± 0.27 µg/mL (≈ 3520 µM)
2 | Cc1nn(CN(Cn2nc(C)c([N+](=O)[O-])c2C)c2ccc(F)cc2)c(C)c1[N+](=O)[O-] [5a, N,N-bis-[(3,5-dimetyl-4-nitro-1H-pyrazol-1-yl)-methyl]-4-fluoroaniline] | > 50 | 90.8 ± 1.1 | 104.4 ± 0.32 | 96.6 ± 3.1 | 82.7 ± 1.85 | 57.2 ± 1.13 | 90.1 ± 2.22 | 85.2 ± 3.13 | 80.1 ± 1.54 | 67.4 ± 3.23 | 38.8 ± 0.71 | 40.5 ± 0.79 (≈ 97.1 µM) | 78 to 80 | + | + | - | + | 230 | 460 | 930 ± 0.14 | viability at 24 h, 3.1 µg/mL [2, 17]: 97.7 ± 1.8%; viability at 48 h, 3.1 µg/mL [2, 17]: 87.19 ± 0.7%; viability at 24 h, 6.25 µg/mL [2, 17]: 98.3 ± 2.22%; viability at 48 h, 6.25 µg/mL [2, 17]: 88.7 ± 2.4%; viability at 24 h, 12.5 µg/mL [2, 17]: 100 ± 2.07%; viability at 48 h, 12.5 µg/mL [2, 17]: 98.2 ± 2.04%; viability at 24 h, 25 µg/mL [2, 17]: 97.4 ± 2.4%; viability at 48 h, 25 µg/mL [2, 17]: 93.7 ± 1.17%; viability at 24 h, 50 µg/mL [2, 17]: 88.6 ± 2.66%; viability at 48 h, 50 µg/mL [2, 17]: 92.5 ± 1.32%; Minimum biofilm inhibition concentration (MBIC), Staphylococcus aureus ATCC25923 [8]: 230 ± 0.05 µg/mL; Minimum biofilm inhibition concentration (MBIC), Escherichia coli ATCC25922 ([9]; 24 h): 460 ± 0.12 µg/mL; Minimum biofilm inhibition concentration (MBIC), Pseudomonas aeruginosa ATCC27853 ([11]; 24 h): 460 ± 0.12 µg/mL; minimal effective concentration [11]: 460 µg/mL; Minimum inhibitory concentration, Staphylococcus aureus ATCC25923 [12]: 460 ± 0.03 µg/mL (≈ 1100 µM); MIC [12]: 460 µg/mL (≈ 1100 µM); Minimum inhibitory concentration, Escherichia coli ATCC25922 [13]: 460 ± 0.06 µg/mL (≈ 1100 µM); MIC [13]: 460 µg/mL (≈ 1100 µM); MIC [14]: 930 ± 0.06 µg/mL (≈ 2230 µM); MIC [15]: 460 ± 0.04 µg/mL (≈ 1100 µM)
3 | Cc1nn(CN(Cn2nc(C)c([N+](=O)[O-])c2C)c2cccc(Cl)c2)c(C)c1[N+](=O)[O-] [5e, N,N-bis-[(3,5-dimetyl-4-nitro-1H-pyrazol-1-yl)-methyl]-3-chloroaniline] | 20.3 ± 0.45 (≈ 46.8 µM) | 103.7 ± 0.73 | 102.4 ± 0.28 | 82.29 ± 0.32 | 70.5 ± 0.88 | 59.94 ± 0.42 | 102.5 ± 0.48 | 96.06 ± 0.34 | 77.4 ± 0.63 | 60.3 ± 0.67 | 37.7 ± 0.46 | 31.7 ± 0.48 (≈ 73.1 µM) | 154 to 155 | - | - | - | - | 930 ± 0.15 | 930 ± 0.15 | 930 ± 0.15 | viability at 24 h, 3.1 µg/mL [2, 17]: 101.9 ± 0.73%; viability at 48 h, 3.1 µg/mL [2, 17]: 95.71 ± 0.5%; viability at 24 h, 6.25 µg/mL [2, 17]: 98.57 ± 0.27%; viability at 48 h, 6.25 µg/mL [2, 17]: 89.47 ± 0.34%; viability at 24 h, 12.5 µg/mL [2, 17]: 88.26 ± 0.32%; viability at 48 h, 12.5 µg/mL [2, 17]: 69.25 ± 0.3%; viability at 24 h, 25 µg/mL [2, 17]: 77.7 ± 0.88%; viability at 48 h, 25 µg/mL [2, 17]: 40.3 ± 0.68%; viability at 24 h, 50 µg/mL [2, 17]: 65.79 ± 0.42%; viability at 48 h, 50 µg/mL [2, 17]: 26.4 ± 0.46%; minimal effective concentration [11]: 930 ± 0.15 µg/mL; MIC [12]: 930 ± 0.04 µg/mL (≈ 2140 µM); MIC [13]: 1870 ± 0.08 µg/mL (≈ 4310 µM); MIC [14]: 1870 ± 0.09 µg/mL (≈ 4310 µM); MIC [15]: 1870 ± 0.04 µg/mL (≈ 4310 µM)
